Results taken from US20220304308A1, “METHOD FOR CONTROLLING GROWTH OF GLYPHOSATE-TOLERANT PLANTS” (JIANGSU ROTAM CHEMISTRY CO., LTD., priority 2019, published 2022).

What was measured:
Type in all cases: in vivo
soybean plants [1] = assay: Phytotoxicity test on soybean sown in treated plots at different times after treatment (Example 3); set-up: key: EWRC scale 1-9: 1 = no symptoms, 9 = total plant destruction
Method: Sourgrass plants were planted and kept at about 24° C. and 85% humidity throughout the experiment.
The sourgrass plants were treated with water dispersible granule (WG) formulations of nicosulfuron and/or glyphosate as summarised in Table 5.
Soybean seeds were sown separately in each of the treated plots 1 day, 7 days, 14 days, 20 days and 30 days after the treatment.
(§1) In order to quantify the damage caused to the soybean plants, visual analysis of phytotoxicity was conducted and recorded based on the scale proposed by the European Weed Research Council. The extent of damage on this scale varies from 1 to 9, where “1” represents absence of symptoms and “9” represents total plant destruction.
Evaluation was conducted 7 days, 14 days, 21 days and 28 days after emergence of the soybean plants.

soybean plants [2] = assay: Phytotoxicity tests on soybean sown 20 days after treatment under conditions X1-X4 (Example 4); settings: Nicosulfuron 75 g/ha, Glyphosate 0 g/ha, 150 L/ha, evaluated 7 days after emergence, EWRC scale 1-9
Method: Sourgrass plants were planted and kept at the conditions summarised in Table 7 below throughout the experiment:
The WG formulations were dispersed in water and applied to the locus of the sourgrass plants at a volumetric rate of 150 L/ha.
Soybean seeds were sown in a greenhouse in the treated plots 20 days after the treatment with the herbicide(s). The period of 20 days was determined by applying Formula I above to the parameters set out above.
as §1
Evaluation was conducted 7 days after emergence of the soybean plants.

[3] = test system: glyphosate-resistant sourgrass (Digitaria insularis); assay: Post-emergence treatment test on glyphosate-resistant sourgrass, nicosulfuron WG formulations (Example 1); settings: conclusion from Table 2
Method: Post-emergence treatment tests were conducted on glyphosate-resistant sourgrass (Digitaria insularis). Sourgrass plants were planted and kept in a greenhouse at about 24° C. and 85% humidity throughout the experiment.
The WG formulations were each diluted with water prior to treatment of the sourgrass plants.
The herbicidal efficiency of each formulation as determined by visual observation at each of 7, 14 and 20 days after the treatment.
The the efficacy of each formulation is represented by a comparison between the treated plants and the Control plants. A score of 0% represents no herbicidal activity. A score of 100% represents complete herbicidal activity (plants completely killed).

COc1cc(OC)nc(NC(=O)NS(=O)(=O)c2ncccc2C(=O)N(C)C)n1 [Nicosulfuron, 2-(4,6-dimethoxypyrimidin-2-ylcarbamoylsulfamoyl)-N,N-dimethylnicotinamide]
2: Phytotoxicity Level (soybean plants [1]; Nicosulfuron 50 g/ha, Glyphosate 0 g/ha (A3 of Table 5), soybean sown 14 days after treatment, EWRC scale 1-9) | Phytotoxicity Level (soybean plants [1]; Nicosulfuron 75 g/ha, Glyphosate 0 g/ha (C3 of Table 5), soybean sown 14 days after treatment, EWRC scale 1-9)
4: Phytotoxicity Level (soybean plants [1]; Nicosulfuron 50 g/ha, Glyphosate 0 g/ha (A3 of Table 5), soybean sown 1 day after treatment, EWRC scale 1 (absence of symptoms) to 9 (total plant destruction)) | Phytotoxicity Level (soybean plants [1]; Nicosulfuron 75 g/ha, Glyphosate 0 g/ha (C3 of Table 5), soybean sown 1 day after treatment, EWRC scale 1-9) | Phytotoxicity Level (soybean plants [1]; Nicosulfuron 75 g/ha, Glyphosate 0 g/ha (C3 of Table 5), soybean sown 7 days after treatment, EWRC scale 1-9)
3: Phytotoxicity Level (soybean plants [1]; Nicosulfuron 50 g/ha, Glyphosate 0 g/ha (A3 of Table 5), soybean sown 7 days after treatment, EWRC scale 1-9)
effective: control of sourgrass plants (in words) [3]
1: Phytotoxicity Level (soybean plants [1]; Nicosulfuron 50 g/ha, Glyphosate 0 g/ha (A3 of Table 5), soybean sown 20 days after treatment, EWRC scale 1-9) | Phytotoxicity Level (soybean plants [1]; Nicosulfuron 50 g/ha, Glyphosate 0 g/ha (A3 of Table 5), soybean sown 30 days after treatment, EWRC scale 1-9) | Phytotoxicity Level (soybean plants [1]; Nicosulfuron 75 g/ha, Glyphosate 0 g/ha (C3 of Table 5), soybean sown 20 days after treatment, EWRC scale 1-9) | Phytotoxicity Level (soybean plants [1]; Nicosulfuron 75 g/ha, Glyphosate 0 g/ha (C3 of Table 5), soybean sown 30 days after treatment, EWRC scale 1-9) | Phytotoxicity Level (soybean plants [2]; conditions X1 (17 ° C., 95% humidity, 8.5 hr sunlight per day), soybean sown 20 days after treatment) | Phytotoxicity Level (soybean plants [2]; conditions X2 (24 ° C., 85% humidity, 9 hr sunlight per day), sown 20 days after treatment) | Phytotoxicity Level (soybean plants [2]; conditions X3 (32 ° C., 65% humidity, 9.5 hr sunlight per day), sown 20 days after treatment) | Phytotoxicity Level (soybean plants [2]; conditions X4 (37 ° C., 30% humidity, 10 hr sunlight per day), sown 20 days after treatment)
